From patent US20260232767A1, “INTERLEUKIN-23 RECEPTOR ANTAGONIST PEPTIDES FOR USE IN THE TREATMENT OF PSORIASIS” (Janssen Pharmaceutica NV, priority 2023, published 2026)

Test system: subjects with moderate-to-severe plaque psoriasis
Assay: IGA score, Example 1
Type: in vivo, human
Description: The Investigator's Global Assessment (IGA) documents the investigator's assessment of the participant's psoriasis at a given time point. Overall lesions are graded for induration, erythema, and scaling. The participant's psoriasis is assessed as cleared (0), minimal (1), mild (2), moderate (3), or severe (4).
This was a randomized, double-blind, placebo-controlled, dose-ranging, parallel group, multicenter, interventional study in subjects with moderate-to-severe plaque psoriasis. A target of 240 subjects were enrolled in this study with 40 subjects planned per intervention group.
Clinician-reported outcomes including Psoriasis Area and Severity Index (PASI), Body Surface Area (BSA), Investigator's Global Assessment (IGA), Nail Psoriasis Area and Severity Index (NAPSI), Fingernail Physician's Global Assessment (f-PGA), Static Physician's Global Assessment of Genitalia (s-PGA-G), Physician's Global Assessment of Hands and/or Feet (hf-PGA), and Scalp Specific Investigator Global Assessment (ss-IGA) were obtained at Week 0, 8, and 16. PASI and IGA were also obtained at Weeks 1, 2, 4, and 12, and at Week 20, four weeks after the administration of the tablets has stopped.

[1] = 100 mg BID, Week 16, trough plasma conc Q2 to <Q3
[2] = 100 mg BID, Week 16, trough plasma conc ≥Q3
[3] = 100 mg QD, Week 16, peak plasma conc. <Q1, N=2
[4] = 100 mg QD, Week 16, peak plasma conc. Q1 to <Q2, N=2
[5] = 100 mg QD, Week 16, peak plasma conc. Q2 to <Q3, N=2
[6] = 100 mg QD, Week 16, peak plasma conc. ≥Q3, N=2
[7] = 100 mg QD, Week 16, trough plasma conc <Q1
[8] = 100 mg QD, Week 16, trough plasma conc Q1 to <Q2
[9] = 100 mg QD, Week 16, trough plasma conc Q2 to <Q3
[10] = 100 mg QD, Week 16, trough plasma conc ≥Q3
[11] = Combined doses, Week 16, peak plasma conc. <Q1, N=10
[12] = Combined doses, Week 16, peak plasma conc. Q1 to <Q2, N=11
[13] = Combined doses, Week 16, peak plasma conc. Q2 to <Q3, N=10
[14] = Combined doses, Week 16, peak plasma conc. ≥Q3, N=11
[15] = Combined doses, Week 16, trough plasma conc <Q1
[16] = Combined doses, Week 16, trough plasma conc Q1 to <Q2
[17] = Combined doses, Week 16, trough plasma conc Q2 to <Q3
[18] = Combined doses, Week 16, trough plasma conc ≥Q3
[19] = Week 16, 25 mg BID, intermediate plasma concentration quartile <Q1, N=1
[20] = Week 16, 25 mg BID, intermediate plasma concentration quartile Q1 to <Q2, N=1
[21] = Week 16, 25 mg BID, intermediate plasma concentration quartile Q2 to <Q3, N=1
[22] = Week 16, 25 mg BID, intermediate plasma concentration quartile ≥Q3, N=1
[23] = Week 16, 25 mg QD, intermediate plasma concentration quartile Q1 to <Q2, N=1
[24] = Week 16, 25 mg QD, intermediate plasma concentration quartile Q2 to <Q3, N=1
[25] = Week 16, 25 mg QD, intermediate plasma concentration quartile ≥Q3, N=1
[26] = Week 16, 50 mg QD, intermediate plasma concentration quartile <Q1, N=1
[27] = Week 16, 50 mg QD, intermediate plasma concentration quartile Q1 to <Q2, N=1
[28] = Week 16, 50 mg QD, intermediate plasma concentration quartile Q2 to <Q3, N=1
[29] = Week 16, 50 mg QD, intermediate plasma concentration quartile ≥Q3, N=2
[30] = Week 16, 100 mg BID, intermediate plasma concentration quartile <Q1, N=1
[31] = Week 16, 100 mg BID, intermediate plasma concentration quartile Q1 to <Q2, N=1
[32] = Week 16, 100 mg BID, intermediate plasma concentration quartile Q2 to <Q3, N=1
[33] = Week 16, 100 mg BID, intermediate plasma concentration quartile ≥Q3, N=2
[34] = Week 16, 100 mg QD, intermediate plasma concentration quartile <Q1, N=1
[35] = Week 16, 100 mg QD, intermediate plasma concentration quartile Q1 to <Q2, N=1
[36] = Week 16, 100 mg QD, intermediate plasma concentration quartile Q2 to <Q3, N=1
[37] = Week 16, 100 mg QD, intermediate plasma concentration quartile ≥Q3, N=1
[38] = Week 16, Combined regimens, intermediate plasma concentration quartile <Q1, N=5
[39] = Week 16, Combined regimens, intermediate plasma concentration quartile Q1 to <Q2, N=5
[40] = Week 16, Combined regimens, intermediate plasma concentration quartile Q2 to <Q3, N=5
[41] = Week 16, Combined regimens, intermediate plasma concentration quartile ≥Q3, N=6

SMILES: CC(=O)NCCCC[C@@H]1NC(=O)[C@H](Cc2c[nH]c3c(C)cccc23)NC(=O)[C@H]([C@@H](C)O)NC(=O)[C@H](CC(N)=O)NC(=O)[C@@H](NC(C)=O)C(C)(C)SSC(C)(C)[C@@H](C(=O)N[C@@H](Cc2ccc(OCCN)cc2)C(=O)N[C@@H](Cc2ccc3ccccc3c2)C(=O)NC2(C(=O)N[C@@H](CCC(=O)O)C(=O)N[C@@H](CC(N)=O)C(=O)N[C@@H](Cc3cccnc3)C(=O)N(C)CC(N)=O)CCOCC2)NC1=O [IL-23 receptor antagonist peptide, Ac-[Pen]*-N-T-[W(7-Me)]-[Lys(Ac)]-[Pen]*-Phe[4-(2-aminoethoxy)]-[2-Nal]-[THP]-E-N-[3-Pal]-Sarc-NH2 (*[Pen]-[Pen]* formdisulfidebond)]
- IGA Score = 0 or 1, subjects (100 mg BID, Week 16, trough plasma conc Q1 to <Q2): 4 (80.0%)
- IGA Score = 0, subjects [1]: 2 (40.0%)
- IGA Score = 0 or 1, subjects [1]: 3 (60.0%)
- IGA Score = 0, subjects [2]: 3 (60.0%)
- IGA Score = 0 or 1, subjects [2]: 4 (80.0%)
- IGA 0 or 1 treatment difference vs placebo (100 mg QD, Week 16): 51.2% (34.0%,
- IGA 0 treatment difference vs placebo (100 mg QD, Week 16): 27.9% (14.6%,
- Subjects achieving IGA Score = 0 (100 mg QD, Week 16): 12 (27.9%)
- Subjects achieving IGA Score = 0 or 1 (100 mg QD, Week 16): 27 (62.8%)
- IGA score 0, % (100 mg QD, Week 16, N=43): 27.9%
- IGA score 0/1, % (100 mg QD, Week 16, N=43): 62.8%
- IGA Score = 0, % subjects [3]: (50.0%)
- IGA Score = 0, n subjects [3]: 1
- IGA Score = 0 or 1, % subjects [3]: (50.0%)
- IGA Score = 0 or 1, n subjects [3]: 1
- IGA Score = 0, % subjects [4]: (50.0%)
- IGA Score = 0, n subjects [4]: 1
- IGA Score = 0 or 1, % subjects [4]: (100.0%)
- IGA Score = 0 or 1, n subjects [4]: 2
- IGA Score = 0, % subjects [5]: (50.0%)
- IGA Score = 0, n subjects [5]: 1
- IGA Score = 0 or 1, % subjects [5]: (50.0%)
- IGA Score = 0 or 1, n subjects [5]: 1
- IGA Score = 0, n subjects [6]: 0
- IGA Score = 0 or 1, % subjects [6]: (50.0%)
- IGA Score = 0 or 1, n subjects [6]: 1
- IGA Score = 0, subjects [7]: 3 (60.0%)
- IGA Score = 0 or 1, subjects [7]: 3 (60.0%)
- IGA Score = 0, subjects [8]: 0
- IGA Score = 0 or 1, subjects [8]: 3 (60.0%)
- IGA Score = 0, subjects [9]: 1 (20.0%)
- IGA Score = 0 or 1, subjects [9]: 3 (60.0%)
- IGA Score = 0, subjects [10]: 1 (20.0%)
- IGA Score = 0 or 1, subjects [10]: 3 (60.0%)
- IGA Score = 0, % subjects [11]: (10.0%)
- IGA Score = 0, n subjects [11]: 1
- IGA Score = 0 or 1, % subjects [11]: (30.0%)
- IGA Score = 0 or 1, n subjects [11]: 3
- IGA Score = 0, % subjects [12]: (36.4%)
- IGA Score = 0, n subjects [12]: 4
- IGA Score = 0 or 1, % subjects [12]: (72.7%)
- IGA Score = 0 or 1, n subjects [12]: 8
- IGA Score = 0, % subjects [13]: (30.0%)
- IGA Score = 0, n subjects [13]: 3
- IGA Score = 0 or 1, % subjects [13]: (80.0%)
- IGA Score = 0 or 1, n subjects [13]: 8
- IGA Score = 0, % subjects [14]: (45.5%)
- IGA Score = 0, n subjects [14]: 5
- IGA Score = 0 or 1, % subjects [14]: (63.6%)
- IGA Score = 0 or 1, n subjects [14]: 7
- IGA Score = 0, subjects [15]: 10 (38.5%)
- IGA Score = 0 or 1, subjects [15]: 14 (53.8%)
- IGA Score = 0, subjects [16]: 5 (19.2%)
- IGA Score = 0 or 1, subjects [16]: 12 (46.2%)
- IGA Score = 0, subjects [17]: 5 (19.2%)
- IGA Score = 0 or 1, subjects [17]: 15 (57.7%)
- IGA Score = 0, subjects [18]: 10 (37.0%)
- IGA Score = 0 or 1, subjects [18]: 21 (77.8%)
- IGA Score = 0, subjects n (%) [19]: 0
- IGA Score = 0 or 1, subjects n (%) [19]: 0
- IGA Score = 0, subjects n (%) [20]: 0
- IGA Score = 0 or 1, subjects n (%) [20]: 1 (100.0%)
- IGA Score = 0, subjects n (%) [21]: 0
- IGA Score = 0 or 1, subjects n (%) [21]: 0
- IGA Score = 0, subjects n (%) [22]: 0
- IGA Score = 0 or 1, subjects n (%) [22]: 1 (100.0%)
- IGA Score = 0, subjects n (%) [23]: 0
- IGA Score = 0 or 1, subjects n (%) [23]: 0
- IGA Score = 0, subjects n (%) [24]: 1 (100.0%)
- IGA Score = 0 or 1, subjects n (%) [24]: 1 (100.0%)
- IGA Score = 0, subjects n (%) [25]: 0
- IGA Score = 0 or 1, subjects n (%) [25]: 0
- IGA Score = 0, subjects n (%) [26]: 0
- IGA Score = 0 or 1, subjects n (%) [26]: 0
- IGA Score = 0, subjects n (%) [27]: 1 (100.0%)
- IGA Score = 0 or 1, subjects n (%) [27]: 1 (100.0%)
- IGA Score = 0, subjects n (%) [28]: 1 (100.0%)
- IGA Score = 0 or 1, subjects n (%) [28]: 1 (100.0%)
- IGA Score = 0, subjects n (%) [29]: 0
- IGA Score = 0 or 1, subjects n (%) [29]: 1 (50.0%)
- IGA Score = 0, subjects n (%) [30]: 1 (100.0%)
- IGA Score = 0 or 1, subjects n (%) [30]: 1 (100.0%)
- IGA Score = 0, subjects n (%) [31]: 1 (100.0%)
- IGA Score = 0 or 1, subjects n (%) [31]: 1 (100.0%)
- IGA Score = 0, subjects n (%) [32]: 0
- IGA Score = 0 or 1, subjects n (%) [32]: 0
- IGA Score = 0, subjects n (%) [33]: 2 (100.0%)
- IGA Score = 0 or 1, subjects n (%) [33]: 2 (100.0%)
- IGA Score = 0, subjects n (%) [34]: 1 (100.0%)
- IGA Score = 0 or 1, subjects n (%) [34]: 1 (100.0%)
- IGA Score = 0, subjects n (%) [35]: 1 (100.0%)
- IGA Score = 0 or 1, subjects n (%) [35]: 1 (100.0%)
- IGA Score = 0, subjects n (%) [36]: 0
- IGA Score = 0 or 1, subjects n (%) [36]: 1 (100.0%)
- IGA Score = 0, subjects n (%) [37]: 0
- IGA Score = 0 or 1, subjects n (%) [37]: 1 (100.0%)
- IGA Score = 0, subjects n (%) [38]: 3 (60.0%)
- IGA Score = 0 or 1, subjects n (%) [38]: 3 (60.0%)
- IGA Score = 0, subjects n (%) [39]: 2 (40.0%)
- IGA Score = 0 or 1, subjects n (%) [39]: 3 (60.0%)
- IGA Score = 0, subjects n (%) [40]: 1 (20.0%)
- IGA Score = 0 or 1, subjects n (%) [40]: 3 (60.0%)
- IGA Score = 0, subjects n (%) [41]: 3 (50.0%)
- IGA Score = 0 or 1, subjects n (%) [41]: 5 (83.3%)
